Columns and labels:
[1] = test system: Mexican avocados; test: Quality defects of ripened Mexican avocados; format: in vivo, avocado
Experimental: (§1) Four groups of 180 (i.e., 3 sets of 60) Mexican avocados were analyzed over four days. One group received no 1-MCP, and the other group was exposed for eight hours to 1-MCP using 2, 4, or 6 packets of 1-MCP (immobilized in cyclodextrin at 0.014%) per set. Each packet was wetted with water, and then placed in a sealed 30 L container along with 1 set of 60 avocados. The avocados were left in the sealed container for 8 hr. After 8 hours, the avocados were removed and the respiration rate was measured over the course of 4 days. Additionally, the firmness of the avocados (represented as durometer stage) was measured using a durometer.
(§2) Three groups of 60 Mexican avocados were analyzed over three days at ambient temperature. One group received no treatment. One group of avocados at stage 1 (i.e., after day 0) was exposed to 1-MCP for approximately 8 hours. One group of avocados at stage 3 (i.e., after day 2) was exposed to 1-MCP for approximately 8 hours. The respiration rate of the avocados was measured over the course of 3 days.
(§3) To determine the difference in performance for treating avocados on a brush bed at varying concentrations before or after they have been put in ripening rooms, four flats of Mexican avocados were analyzed. One flat received no treatment. The other three flats were treated with physical treatment A at 12, 22, and 32 g/L, respectively, applied using brush bed system and subsequently dried at 50° C. Avocados treated with physical treatment A were also triggered with ethylene, either before or after treatment with physical treatment A. The respiration rate of the avocados was measured. The firmness of the avocados was measured using a durometer.

[2] = test system: Cucumbers; test: Aesthetics (yellowing, shrivel) of cucumbers; format: in vivo, cucumber; conditions: 5 days exposure to exogenous ethylene (2 ppm)
Experimental: (§4) Cucumbers were analyzed in the presence (2 ppm) and absence (0 ppm) of exogenous ethylene at 20° C. for 5 days. Four groups of cucumbers were analyzed. One group received no treatment. One group was treated with a chemical treatment (i.e., 1-MCP). One group was treated with a physical treatment A (40 g/L). One group was treated with both a chemical treatment (i.e., 1-MCP) and physical treatment A (40 g/L). The respiration rate and the mass loss rate of the cucumbers was measured

[3] = test system: Cucumbers; test: Respiration rate of cucumbers; format: in vivo, cucumber; conditions: 20° C., 5 days
From the text: (§5) As used herein, the “respiration rate” of a product such as produce (e.g., a produce unit) refers to the rate at which the product releases CO2, and more specifically is the volume of CO2 (at standard temperature and pressure) released per unit time per unit mass of the product. In some embodiments, the respiration rate of a product can be measured by placing the product in a closed container of known volume that is equipped with a CO2 sensor, recording the CO2 concentration within the container as a function of time, and then calculating the rate of CO2 release required to obtain the measured concentration values. In some cases, the respiration rate of multiple produce units in a volume (e.g., a sealed or semi-sealed volume) is measured in a single measurement (e.g., as an average). It is understood that respiration rate may be determined by indirect methods, including, but not limited to, hyperspectral imaging, NIR, and other imaging or characterization processes.
as §4, with “One group was treated with both a chemical treatment (i.e., 1-MCP) and physical treatment A (40 g/L).” left out

[4] = test system: Mexican avocados; test: Firmness / durometer stage of Mexican avocados; format: in vivo, avocado
Experimental: In some embodiments, a stage of a produce unit (e.g., an avocado) is based on firmness, and can be measured in shores (e.g., using a durometer) and/or pounds of pressure (e.g., using a penetrometer), then correlated to a stage. In some embodiments, a stage of a produce unit can be based on other parameters, such as respiration rate and/or color).
as §1, §2
(§6) Three groups of 120 Mexican avocados were analyzed over about 5 days. One group received no treatment. One group was exposed to 1-MCP for 8 hours immediately after removal from cold storage at 4.5° C. (“cold 1-MCP”). One group was exposed to 1-MCP for 8 hours after the avocados spent 2 hours at ambient temperature (“semi-cold 1-MCP”). One group was exposed to 1-MCP for 8 hours after the avocados spent 6 hours at ambient temperature (“ambient 1-MCP”). The respiration rate of the avocados was measured over the course of 5 days. The firmness of the avocados was measured using a durometer.
as §3

[5] = test system: Cucumbers; test: Mass loss rate of cucumbers; format: in vivo, cucumber; conditions: 20° C., 5 days
Experimental: (§7) As used herein, the “mass loss rate” refers to the rate at which the product loses mass (e.g. by releasing water and other volatile compounds). The mass loss rate is typically expressed as a percentage of the original mass per unit time (e.g., percent per day).
as §4

[6] = test system: Persian limes; test: Aesthetics (yellowing) of Persian limes; format: in vivo, Persian lime; conditions: over a 5 day period; same trends with 2 ppm ethylene
Experimental: (§8) Persian limes were analyzed in the presence (2 ppm) and absence (0 ppm) of exogenous ethylene at 20° C. for 5 days. Four groups of limes were analyzed. One group received no treatment. One group was treated with 1-MCP. One group was treated with physical treatment A (40 g/L). One group was treated with both 1-MCP and physical treatment A (40 g/L). The respiration rate of the limes was measured. The mass loss rate of the limes was measured.

[7] = test system: Mexican avocados; test: Respiration rate (CO2 release) of Mexican avocados; format: in vivo, avocado; conditions: for cumulative respiration factor (RF): Example 3
From the text: as §5
As used herein, the term “respiration factor” is defined as the ratio of the cumulative respiration of uncoated produce (measured for a control group) to the cumulative respiration of the corresponding coated produce.
as §1, §2, §6
Four groups of Mexican avocados were analyzed in order to investigate the minimum respiration peak that Mexican avocadoes should reach in order to ripen without quality issues. One group received no treatment. One group was treated with 1 layer of physical treatment (by bowl dipping and ambient drying; physical treatment A at 30 g/L with 3 g/L glycerol monocaprate). […] The respiration rate of the avocados was measured daily for three weeks. […]
To determine the difference in performance for treating avocados on a brush bed at varying concentrations before or after they have been put in ripening rooms, four flats of Mexican avocados were analyzed. […]

[8] = test system: Persian limes; test: Mass loss rate of Persian limes; format: in vivo, Persian lime; conditions: not exposed to ethylene and in the presence of 2 ppm ethylene, 20° C., 5 days
Experimental: as §7, §8

[9] = Example 1, once allowed to ripen (about two weeks), 6 packets 1-MCP
[10] = Example 3, semi-cold and ambient 1-MCP

CC1=CC1 [1-MCP, 1-methylcyclopropene]
checkerboarding (high variability of stage of ripeness) ([1]; Example 1): observed
feel of the avocados ([1]; Example 1): spongy
incidence of flesh adhesion [1, 9]: > 30%
incidence of mold [1, 9]: > 25%
internal quality ([1]; Example 2): did not improve internal quality
incidence of mold and vascular browning ([1]; Example 2, 1-MCP at stage 1 or stage 3, approximately 40 shore): 15-25%
yellowing [2]: greater positive impact on the rate of yellowing
respiration rate ([3]; absence of ethylene): did not lower the overall respiration rate
respiration rate ([3]; exposed to ethylene (2 ppm)): mitigated the corresponding increase in respiration rate
durometer stage ([4]; Example 1, 6 packets of 1-MCP, day 4 (untreated stage 5)): 1.5
softening rate ([4]; Example 2, 1-MCP applied at stage 3): slight effect
ripening ([4]; Example 3, cold 1-MCP): ripening behavior was still observed
ripening stage relative to control group ([4]; Example 3, cold 1-MCP, by the time the control group reached stage 5): over two stages behind the control group
ripening [4, 10]: did not ripen effectively
softening rate reduction [4, 10]: greater softening rate reduction than cold 1-MCP
mass loss rate ([5]; absence of ethylene): no impact
mass loss rate ([5]; presence of ethylene (2 ppm)): lowered the mass loss rate
yellowing / aesthetics [6]: reduced the yellowing
respiration rate ([7]; Example 1, exposed 8 hr to 2, 4 or 6 packets 1-MCP (in cyclodextrin at 0.014%) in sealed 30 L container, measured over 4 days): high upon removal but quickly decreased and continued to decrease through 4 days post-exposure
CO2 production ([7]; Example 2, 1-MCP exposure at stage 1): continuous decrease in CO2 production, back to day 0 levels
cumulative respiration factor (RF) ([7]; cold 1-MCP: exposed 8 hours immediately after removal from 4.5° C. storage): 1.8 ×
cumulative respiration factor (RF) ([7]; semi-cold (2 hours at ambient) and ambient (6 hours at ambient) 1-MCP exposure, 8 hours): 2.5 ×
RF (respiration factor) ([7]; Example 7, 1-MCP 8 hours, regardless of subsequent ethylene exposure (24 hours at 200 ppm)): 1.62 ×
mass loss rate [8]: no significant impact
